The numbers were not newly measured in paper PMC4041784, “Stereoselective Property of 20(S)-Protopanaxadiol Ocotillol Type Epimers Affects Its Absorption and Also the Inhibition of P-Glycoprotein” (PLoS ONE, 2014), which cites them from elsewhere.

Data set [1] relates to peroxisome proliferator activated receptor-γ. Details: method as in PMID 22234331.
The subject of data set [2] is human fecal microflora. More on the design: method as in PMID 11824558.
For data set [3] the following is noted: not told.
On the set-up of data set [4]: method as in PMID 21258738, PMID 15734156.

In the case of 20(S)-Rg3, the “peroxisome proliferator activated receptor-γ activity relative to 20(R)-Rg3” value in data set [1] was 10 fold. Moreover, the “transformation amount into 20(S)-Rh2 or 20(S)-PPD relative to 20(R)-Rg3” value in data set [2] is given as 19 fold.
`CC(C)=CCC[C@@](C)(O)[C@H]1CC[C@]2(C)[C@@H]1[C@H](O)C[C@@H]1[C@@]3(C)CC[C@H](O[C@@H]4O[C@H](CO)[C@@H](O)[C@H](O)[C@H]4O)C(C)(C)[C@@H]3CC[C@]12C` [20(R)-Rh2]: in data set [3], the permeability is 0.02 ×10⁻⁶ cm/s.
On to `CC(C)=CCCC(C)(O)C1CCC2C1C(O)CC1C2(C)CCC2C(C)(C)C(OC3OC(CO)C(O)C(O)C3O)CCC21C` [20(S)-Rh2], for which, in data set [3], the permeability is 0.3 ×10⁻⁶ cm/s; the “permeability difference between 20(R)-Rh2 and 20(S)-Rh2” value was 15 folds.
On to `CC(C)=CCC[C@](C)(O)[C@H]1CC[C@]2(C)[C@@H]1[C@H](O)C[C@@H]1[C@@]3(C)CC[C@H](O[C@@H]4O[C@H](CO)[C@@H](O)[C@H](O)[C@H]4O[C@@H]4O[C@H](CO)[C@@H](O)[C@H](O)[C@H]4O)C(C)(C)[C@@H]3CC[C@]12C` [Rg3, Ginsenoside Rg3], for which the oral bioavailability result in data set [4] is reported as “less than 5%”.
With `CC(C)=CCC[C@](C)(O)[C@H]1CC[C@]2(C)[C@@H]1[C@H](O)C[C@@H]1[C@@]3(C)CC[C@H](O[C@@H]4O[C@H](CO)[C@@H](O)[C@H](O)[C@H]4O)C(C)(C)[C@@H]3CC[C@]12C` [Rh2, ginsenoside Rh2], the oral bioavailability result in data set [4] is “less than 5%”.
